Patent US20250059188A1, “ARYLSULPHONAMIDE COMPOUNDS” (Anaxis Pharma Pty Ltd, priority 2021, published 2025)

Legend:
human MLKL (full length) = human MLKL (full length) (Homo sapiens (Human), UniProt Q8NB16); assay: KINOMEscan binding assay, human MLKL (full length); settings: equilibrium dissociation constant
Method in brief: (§1)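 Binding constants were derived by fitting qPCR-quantified bead-retained kinase against compound concentration to the Hill equation, slope set at −1. Compound series were 3-fold over 11 points with 1% DMSO; most top concentrations were 30,000 nM. Kinases were T7-phage-tagged or HEK-293-produced with DNA tags.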

U937 cells = assay: Counter screen: U937 cell viability without TSQ cocktail (off-target effect); design: species or system human; settings: Homo sapiens, U-937, compound without TSQ cocktail, read-out: Off-target effect (IC50 cell-based assay)
Description: (§2) • Cell Line ID: U937 human histiocytic leukemia cell line. • Cell Concentration (cells/well): Final cell density is 20000 cells per well. • Cell growth medium: HT-RPMI medium+7.4% Fetal Bovine Serum (FBS). Cells are cultured in Corning 150 cm^2 tissue culture flasks with vented caps at 37° C./5% CO2. • Incubation: Plates were incubated at 37° C./5% CO2 in a humidified incubator for 48 hours following addition of compounds and death stimuli (TSQ cocktail). • Compound concentration: 36 μM starting concentration, 1:3 dilution, 10 point • DMSO final concentration (% v/v): 0.3%. Compounds in TSQ Cocktail (T: TNF; S: Smac Mimetic; Q: Q-VD-OPh) and their Final Concentrations: • hTNF-Fc (100 ng/ml)—produced by standard procedures as shown in Bossen et al., J. Biol. Chem., 2006, 281(20), 13964-13971. • Compound A (500 nM) —Smac mimetic, Tetralogic and SYNthesis med chem • Q-VD-OPh (10 μM) —MP Biomedicals
(§3) The cellular assay was carried out according to the following steps: • 1. Each well was prepared by sequential addition of: • a. DMSO (control; columns 1-2 and 23-24) or compound in DMSO—addition was performed using acoustic transfer of nL volumes of stock compound to give final test concentrations of 36, 12, 4, 1.3, 0.44, 0.148, 0.049, 0.016, 0.005 and 0.002 μM. All wells were backfilled with DMSO to a final total volume in the well of 100 nL. • b. Following compound/DMSO addition in step (a), 40 μL of cell suspension (5×10^5 cells/mL) was added to provide a final cell concentration of 20,000 cells per well, and • c. Following cell addition in step (b), 10 μL of 5×TSQ cocktail (except to positive controls; columns 1 and 23) was added to each well. • 2. After 48 hours, plate was removed from the 37° C. incubator and equilibrated to room temperature for 45 minutes. • 3. 15 μL of room temperature CellTitre-Glo2™ (Promega™) was added to each well. • 4. Shook plates for 2 minutes (˜600 rpm) and incubated at room temperature for 15 minutes to allow signal to stabilise. • 5. Read luminescence readout on a plate reader.
(§4) 10 point titration curves were fitted with the 4 parameter logistic nonlinear regression model and the IC50 reported reflect the inflection point of the curve for curve fitting.
(§5) • Assay involving the TSQ cocktail (T: TNF; S: Smac mimetic; Q: Q-VD-OPh): TSQ treatment ensures that cells specifically undergo necroptotic cell death. TNF activates the TNF receptor, Smac mimetic directs the signal away from proinflammatory signaling and toward the RIPK1/RIPK3-mediated cell death pathways, and Q-VD-OPh ensures that the apoptotic response is blocked leaving only the programmed necrosis response. The compounds' activity (solution in DMSO) tested in this TSQ-induced assay was evaluated by determining the number of viable cells in culture by measuring the amount of ATP present as measured by CelltiterGlo. • Counter screen: In parallel, all compounds were tested for their ability to affect cell viability. The same U937 cells were treated with compound in DMSO without the TSQ cocktail. This counter screen enabled evaluation of off-target effects. In this case, cell viability was measured by CelltiterGlo.

[1] = tested on: U937 human histiocytic leukemia cell line; assay: Inhibition of TSQ induced necroptosis in U937 cells (CellTitre-Glo); settings: Homo sapiens, U-937, TSQ cocktail (TNF, Smac mimetic, Q-VD-OPh), 48 hours, read-out: Inhibition of TSQ-induced necroptosis (IC50 cell-based assay)
Description: Cellular Assay: Screening Compounds for Inhibition of TSQ Induced Necroptosis, 384 Well Plate Format.
as §2, §3
Percent viability was calculated for each compound according to equation (2): […]
as §4, §5

human RIPK3 = human RIPK3 (Homo sapiens (Human), UniProt Q9Y572); assay: KINOMEscan binding assay, human RIPK3; settings: equilibrium dissociation constant
Sequence of human RIPK3 (Q9Y572 whole entry): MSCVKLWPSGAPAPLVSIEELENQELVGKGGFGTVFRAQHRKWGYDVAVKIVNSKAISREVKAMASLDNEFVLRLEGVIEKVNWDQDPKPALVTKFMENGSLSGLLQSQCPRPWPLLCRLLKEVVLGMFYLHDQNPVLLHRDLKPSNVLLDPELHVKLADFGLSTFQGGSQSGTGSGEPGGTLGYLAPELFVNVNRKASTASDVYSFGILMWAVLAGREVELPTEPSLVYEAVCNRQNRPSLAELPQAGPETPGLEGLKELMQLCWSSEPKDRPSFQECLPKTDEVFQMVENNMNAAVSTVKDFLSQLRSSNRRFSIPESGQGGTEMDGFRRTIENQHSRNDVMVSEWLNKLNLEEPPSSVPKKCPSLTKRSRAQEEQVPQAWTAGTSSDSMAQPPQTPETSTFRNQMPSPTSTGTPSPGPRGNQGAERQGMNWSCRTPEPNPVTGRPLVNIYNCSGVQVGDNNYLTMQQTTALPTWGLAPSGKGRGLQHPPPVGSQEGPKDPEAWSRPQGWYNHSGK
Method in brief: as §1

human RIPK1 = human RIPK1 (Homo sapiens (Human), UniProt Q13546); assay: KINOMEscan binding assay, human RIPK1; settings: equilibrium dissociation constant
Sequence of human RIPK1 (Q13546 whole entry): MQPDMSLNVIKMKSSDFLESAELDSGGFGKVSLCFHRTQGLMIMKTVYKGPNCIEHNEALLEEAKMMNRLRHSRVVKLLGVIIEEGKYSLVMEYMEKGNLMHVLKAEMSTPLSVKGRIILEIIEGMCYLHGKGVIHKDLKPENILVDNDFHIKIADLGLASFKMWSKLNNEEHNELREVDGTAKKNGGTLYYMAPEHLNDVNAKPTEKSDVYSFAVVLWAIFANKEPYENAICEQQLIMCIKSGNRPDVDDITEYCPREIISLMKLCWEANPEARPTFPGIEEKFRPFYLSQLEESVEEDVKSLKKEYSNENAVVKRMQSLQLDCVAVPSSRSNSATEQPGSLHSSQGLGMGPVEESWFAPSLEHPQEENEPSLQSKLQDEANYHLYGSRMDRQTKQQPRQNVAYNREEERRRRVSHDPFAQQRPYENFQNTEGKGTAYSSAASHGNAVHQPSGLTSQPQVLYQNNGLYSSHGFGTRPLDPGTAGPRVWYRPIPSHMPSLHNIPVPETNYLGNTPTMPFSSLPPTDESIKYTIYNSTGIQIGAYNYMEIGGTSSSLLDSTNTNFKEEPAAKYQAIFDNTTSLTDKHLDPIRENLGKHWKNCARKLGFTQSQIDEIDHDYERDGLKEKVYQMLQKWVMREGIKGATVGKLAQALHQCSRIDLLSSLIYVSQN
Method in brief: as §1

Sequence of human MLKL (full length) (Q8NB16 whole entry): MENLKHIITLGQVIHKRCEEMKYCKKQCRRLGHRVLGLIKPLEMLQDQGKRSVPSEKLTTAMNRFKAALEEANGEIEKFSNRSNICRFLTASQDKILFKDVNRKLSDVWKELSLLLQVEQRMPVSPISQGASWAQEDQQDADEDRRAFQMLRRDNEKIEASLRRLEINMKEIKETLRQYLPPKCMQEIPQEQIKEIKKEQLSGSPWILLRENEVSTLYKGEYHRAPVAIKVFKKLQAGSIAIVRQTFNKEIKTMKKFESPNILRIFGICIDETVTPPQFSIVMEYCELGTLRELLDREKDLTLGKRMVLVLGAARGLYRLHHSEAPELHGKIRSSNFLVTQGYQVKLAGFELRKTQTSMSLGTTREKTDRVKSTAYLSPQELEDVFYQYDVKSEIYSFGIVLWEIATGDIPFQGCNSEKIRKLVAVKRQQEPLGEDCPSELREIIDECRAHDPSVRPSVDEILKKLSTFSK

Row | Compound | Kd (human MLKL (full length)) | IC50 (U937 cells) | IC50 [1] | Kd (human RIPK3) | Kd (human RIPK1)
1 | CC(C)n1cc(-c2cnc(N)c3c(-c4ccc(NS(=O)(=O)C(F)F)c(O[C@@H](C)c5ccc(F)cc5)c4)nn(C)c23)cn1 [Compound 31, (S)-N-(4-(4-amino-7-(1-isopropyl-1H-pyrazol-4-yl)-1-methyl-1H-pyrazolo[4,3-c]pyridin-3-yl)-2-(1-(4-fluorophenyl)ethoxy)phenyl)-1,1-difluoromethanesulfonamide] | < 1 nM | > 10000 nM | < 10 nM | > 10000 nM | > 10000 nM
2 | C[C@H](Oc1cc(-c2nn(C)c3c(-c4ccncn4)cnc(N)c23)ccc1NS(=O)(=O)C(F)F)c1ccc(F)cc1 [Compound 40, (S)—N-(4-(4-amino-1-methyl-7-(pyrimidin-4-yl)-1H-pyrazolo[4,3-c]pyridin-3-yl)-2-(1-(4-fluorophenyl)ethoxy)phenyl)-1,1-difluoromethanesulfonamide] | < 1 nM | > 10000 nM | < 10 nM | > 10000 nM | > 10000 nM
3 | C[C@H](Oc1cc(-c2nn(C)c3c(-c4cnn(C(F)(F)F)c4)cnc(N)c23)ccc1NS(=O)(=O)C(F)F)c1ccc(F)cc1 [Compound 134, (S)-N-(4-(4-amino-1-methyl-7-(1-(trifluoromethyl)-1H-pyrazol-4-yl)-1H-pyrazolo[4,3-c]pyridin-3-yl)-2-(1-(4-fluorophenyl)ethoxy)phenyl)-1,1-difluoromethanesulfonamide] | 1 to 100 nM | > 10000 nM | 10 to 1000 nM | > 10000 nM | > 10000 nM
4 | C[C@H](Oc1cc(-c2nn(C)c3c(C#CC4CCOCC4)cnc(N)c23)ccc1NS(=O)(=O)C(F)F)c1ccc(F)cc1 [Compound 58, (S)-N-(4-(4-amino-1-methyl-7-((tetrahydro-2H-pyran-4-yl)ethynyl)-1H-pyrazolo[4,3-c]pyridin-3-yl)-2-(1-(4-fluorophenyl)ethoxy)phenyl)-1,1-difluoromethanesulfonamide] | < 1 nM | > 10000 nM | 10 to 1000 nM | > 10000 nM | > 10000 nM
5 | C[C@H](Oc1cc(-c2nn(C)c3c(-c4ccnc(C(F)F)c4)cnc(N)c23)ccc1NS(=O)(=O)C(F)F)c1ccc(F)cc1 [Compound 57, (S)-N-(4-(4-amino-7-(2-(difluoromethyl)pyridin-4-yl)-1-methyl-1H-pyrazolo[4,3-c]pyridin-3-yl)-2-(1-(4-fluorophenyl)ethoxy)phenyl)-1,1-difluoromethanesulfonamide] | 1 to 100 nM | > 10000 nM | 10 to 1000 nM | > 10000 nM | > 10000 nM
6 | C[C@H](Oc1cc(-c2nn(C)c3c(-c4cnn(C5CN(CC(F)(F)F)C5)c4)cnc(N)c23)ccc1NS(=O)(=O)C(F)F)c1ccc(F)cc1 [Compound 77, (S)-N-(4-(4-amino-1-methyl-7-(1-(1-(2,2,2-trifluoroethyl)azetidin-3-yl)-1H-pyrazol-4-yl)-1H-pyrazolo[4,3-c]pyridin-3-yl)-2-(1-(4-fluorophenyl)ethoxy)phenyl)-1,1-difluoromethanesulfonamide] | < 1 nM | > 10000 nM | < 10 nM | > 10000 nM | > 10000 nM
7 | C[C@H](Oc1cc(-c2nn(C)c3c(-c4cnn(C5CC6(CNC6)C5)c4)cnc(N)c23)ccc1NS(=O)(=O)C(F)F)c1ccc(F)cc1 [Compound 78, (S)-N-(4-(7-(1-(2-azaspiro[3.3]heptan-6-yl)-1H-pyrazol-4-yl)-4-amino-1-methyl-1H-pyrazolo[4,3-c]pyridin-3-yl)-2-(1-(4-fluorophenyl)ethoxy)phenyl)-1,1-difluoromethanesulfonamide] | < 1 nM | > 10000 nM | 10 to 1000 nM | > 10000 nM | > 10000 nM
8 | C[C@H](Oc1cc(-c2nn(C)c3c(-c4cnn(C5CN(C)C5)c4)cnc(N)c23)ccc1NS(=O)(=O)C(F)F)c1ccc(F)cc1 [Compound 92, (S)-N-(4-(4-amino-1-methyl-7-(1-(1-methylazetidin-3-yl)-1H-pyrazol-4-yl)-1H-pyrazolo[4,3-c]pyridin-3-yl)-2-(1-(4-fluorophenyl)ethoxy)phenyl)-1,1-difluoromethanesulfonamide] | < 1 nM | > 10000 nM | 10 to 1000 nM | > 10000 nM | > 10000 nM
9 | C[C@H](Oc1cc(-c2nn(C)c3c(-c4cnn(C5CCCNCC5)c4)cnc(N)c23)ccc1NS(=O)(=O)C(F)F)c1ccc(F)cc1 (stereo partly drawn) [Compound 74, N-(4-(4-amino-7-(1-(azepan-4-yl)-1H-pyrazol-4-yl)-1-methyl-1H-pyrazolo[4,3-c]pyridin-3-yl)-2-((S)-1-(4-fluorophenyl)ethoxy)phenyl)-1,1-difluoromethanesulfonamide] | < 1 nM | > 10000 nM | 10 to 1000 nM | > 10000 nM | > 10000 nM
10 | C[C@H](Oc1cc(-c2nn(C)c3c(-c4ccc(C(F)(F)F)nc4)cnc(N)c23)ccc1NS(=O)(=O)C(F)F)c1ccc(F)cc1 [Compound 117, (S)-N-(4-(4-amino-1-methyl-7-(6-(trifluoromethyl)pyridin-3-yl)-1H-pyrazolo[4,3-c]pyridin-3-yl)-2-(1-(4-fluorophenyl)ethoxy)phenyl)-1,1-difluoromethanesulfonamide] | 1 to 100 nM | > 10000 nM | 10 to 1000 nM | > 10000 nM | > 10000 nM
11 | CC#Cc1cnc(N)c2c(-c3ccc(NS(=O)(=O)C(F)F)c(O[C@@H](C)c4ccc(F)cc4)c3)nn(C)c12 [Compound 56, (S)-N-(4-(4-amino-1-methyl-7-(prop-1-yn-1-yl)-1H-pyrazolo[4,3-c]pyridin-3-yl)-2-(1-(4-fluorophenyl)ethoxy)phenyl)-1,1-difluoromethanesulfonamide] | < 1 nM | > 10000 nM | 10 to 1000 nM | > 10000 nM | > 10000 nM
12 | C[C@H](Oc1cc(-c2cnn3c(-c4cnn(C5CCOCC5)c4)cnc(N)c23)ccc1NS(=O)(=O)C(F)F)c1ccc(F)cc1 [Compound 36, (S)-N-(4-(4-amino-7-(1-(tetrahydro-2H-pyran-4-yl)-1H-pyrazol-4-yl)pyrazolo[1,5-a]pyrazin-3-yl)-2-(1-(4-fluorophenyl)ethoxy)phenyl)-1,1-difluoromethanesulfonamide] | < 1 nM | > 10000 nM | < 10 nM | > 10000 nM | > 10000 nM
13 | C[C@H](Oc1cc(-c2nn(C)c3c(-c4cnc(N(C)C)nc4)cnc(N)c23)ccc1NS(=O)(=O)C(F)F)c1ccc(F)cc1 [Compound 106, (S)-N-(4-(4-amino-7-(2-(dimethylamino)pyrimidin-5-yl)-1-methyl-1H-pyrazolo[4,3-c]pyridin-3-yl)-2-(1-(4-fluorophenyl)ethoxy)phenyl)-1,1-difluoromethanesulfonamide] | 1 to 100 nM | > 10000 nM | 10 to 1000 nM | > 10000 nM | > 10000 nM
14 | CCS(=O)(=O)Nc1ccc(-c2nn(C)c3c(-c4cnn(C5CCOCC5)c4)cnc(N)c23)cc1O[C@@H](C)c1ccc(F)cc1 [Compound 45, (S)-N-(4-(4-amino-1-methyl-7-(1-(tetrahydro-2H-pyran-4-yl)-1H-pyrazol-4-yl)-1H-pyrazolo[4,3-c]pyridin-3-yl)-2-(1-(4-fluorophenyl)ethoxy)phenyl)ethanesulfonamide] | 1 to 100 nM | > 10000 nM | 10 to 1000 nM | > 10000 nM | > 10000 nM
